Assay results: patent US20240209028A1, “CNP COMPOUNDS” (priority 2022, published 2024)
Starred links: 1 amine or outer side, 2 acyl side, 3 side chain; linkers in the order of their positions; H or OH if unused. Positions of bridges follow the written chain, without caps; N, C: chain ends. Residues, ends and D or L forms follow the SMILES beside them. *: point of attachment. C18 diacid = O=C(O)CCCCCCCCCCCCCCCCC(=O)*; γGlu = O=C(O)[C@H](CCC(=O)[*:2])N[*:1]; AEEA = NCCOCCOCC(=O)O

Molecular target: T1, human natriuretic peptide receptor 2 (hNPR2) (Homo sapiens, UniProt P20594)
T1 construct: expressed in transfected cells; host or cells: HEK293 (ATCC CRL-1573), clone 35, co-transfected with pGloSensor-42F
T1 sequence (P20594 23-1047): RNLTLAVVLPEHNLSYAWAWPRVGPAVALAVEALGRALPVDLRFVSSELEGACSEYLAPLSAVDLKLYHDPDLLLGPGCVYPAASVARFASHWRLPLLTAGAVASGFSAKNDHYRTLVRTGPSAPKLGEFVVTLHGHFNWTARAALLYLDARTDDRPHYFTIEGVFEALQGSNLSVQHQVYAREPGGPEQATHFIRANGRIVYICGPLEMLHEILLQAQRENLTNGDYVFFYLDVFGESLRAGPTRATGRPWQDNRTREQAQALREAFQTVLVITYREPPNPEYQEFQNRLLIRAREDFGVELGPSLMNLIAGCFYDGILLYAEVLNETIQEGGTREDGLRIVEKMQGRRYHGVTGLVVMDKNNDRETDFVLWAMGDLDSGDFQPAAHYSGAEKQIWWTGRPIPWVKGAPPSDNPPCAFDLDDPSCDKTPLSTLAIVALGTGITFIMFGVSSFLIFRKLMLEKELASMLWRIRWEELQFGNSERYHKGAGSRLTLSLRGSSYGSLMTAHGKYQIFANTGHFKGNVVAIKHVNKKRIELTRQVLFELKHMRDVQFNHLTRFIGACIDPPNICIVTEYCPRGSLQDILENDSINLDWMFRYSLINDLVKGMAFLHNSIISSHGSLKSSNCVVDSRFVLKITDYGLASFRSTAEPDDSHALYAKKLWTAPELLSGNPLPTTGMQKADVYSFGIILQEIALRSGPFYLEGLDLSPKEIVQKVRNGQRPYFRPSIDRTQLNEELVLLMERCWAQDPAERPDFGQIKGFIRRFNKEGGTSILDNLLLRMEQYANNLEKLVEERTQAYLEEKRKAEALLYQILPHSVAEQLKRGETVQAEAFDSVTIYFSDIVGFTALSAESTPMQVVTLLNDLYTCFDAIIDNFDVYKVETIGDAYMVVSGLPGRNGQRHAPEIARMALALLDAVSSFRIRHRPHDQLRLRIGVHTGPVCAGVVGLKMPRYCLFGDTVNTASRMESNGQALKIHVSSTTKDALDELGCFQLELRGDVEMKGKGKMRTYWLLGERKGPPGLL
Experiment: In vitro hNPR2 activity assay (cGMP GloSensor reporter, HEK293)
Format: cell-based
Conditions: for hNPR2 0% HSA. [EC50% rel CNP]: potency relative to CNP22 (0065)
In short: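 Potency is the EC50 from a four-parameter logistic fit, also expressed relative to the in-plate CNP22 control (×100), with at least two replicates. Compounds (ten concentrations, […], HSA-free diluent with 1% OVA, 0.01% Tween20) were incubated 30 min at 37 °C on HEK293 cells co-expressing hNPR2 and a GloSensor cGMP luciferase. Luminescence detected with Bright-Glo.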

Structure (SMILES)	hNPR2 0% HSA. [EC50% rel CNP] [%]	EC50 (0% HSA, HEK293-hNPR2/GloSensor cells) [nM]
CC[C@H](C)[C@@H]1NC(=O)[C@H](CCCNC(=N)N)NC(=O)[C@H](CC(=O)O)NC(=O)[C@H](CC(C)C)NC(=O)[C@@H]2CCCN2C(=O)[C@H](CC(C)C)NC(=O)CNC(=O)[C@H](Cc2ccccc2)NC(=O)[C@@H](NC(=O)CNC(=O)[C@H](CO)NC(=O)[C@H](CO)NC(=O)[C@H](CC(C)C)NC(=O)CNC(=O)[C@@H](NC(=O)[C@H](Cc2c[nH]cn2)NC(=O)[C@H](CCC(N)=O)NC(=O)[C@H](C)NC(=O)CNC(=O)[C@H](Cc2c[nH]cn2)NC(=O)[C@H](Cc2ccc(O)cc2)NC(=O)[C@H](CCCCN)NC(=O)[C@H](CCCNC(=N)N)NC(=O)[C@H](C)NC(=O)COCCOCCNC(=O)COCCOCCNC(=O)CC[C@H](NC(=O)CCCCCCCCCCCCCCCCC(=O)O)C(=O)O)[C@@H](C)O)CSSC[C@@H](C(=O)O)NC(=O)CNC(=O)[C@H](CC(C)C)NC(=O)CNC(=O)[C@H](CO)NC(=O)[C@H](CC(C)C)NC(=O)[C@H](CO)NC(=O)CNC1=O [compound 1350] ({C18 diacid-γGlu-AEEA-AEEA}-ARKYHGAQHTGLSSGCFGLPLDRIGSLSGLGC-OH; disulfide 16-32)	41.0	
CC[C@H](C)[C@@H]1NC(=O)[C@H](CCCNC(=N)N)NC(=O)[C@H](CC(=O)O)NC(=O)[C@H](CC(C)C)NC(=O)[C@@H]2CCCN2C(=O)[C@H](CC(C)C)NC(=O)CNC(=O)[C@H](Cc2ccccc2)NC(=O)[C@@H](NC(=O)CNC(=O)[C@H](CCCCN)NC(=O)[C@H](CO)NC(=O)CNC(=O)CNC(=O)[C@H](CCCCN)NC(=O)[C@H](CCCCN)NC(=O)[C@H](CCC(N)=O)NC(=O)[C@H](C)NC(=O)CNC(=O)[C@H](CCC(=O)O)NC(=O)[C@H](Cc2ccc(O)cc2)NC(=O)COCCOCCNC(=O)COCCOCCNC(=O)COCCOCCNC(=O)COCCOCCNC(=O)CC[C@H](NC(=O)CCCCCCCCCCCCCCCCC(=O)O)C(=O)O)CSSC[C@@H](C(=O)O)NC(=O)CNC(=O)[C@H](CC(C)C)NC(=O)CNC(=O)[C@H](CO)NC(=O)[C@H](CC(C)C)NC(=O)[C@H](CO)NC(=O)CNC1=O [compound 1391] ({C18 diacid-γGlu-AEEA-AEEA-AEEA-AEEA}-YEGAQKKGGSKGCFGLPLDRIGSLSGLGC-OH; disulfide 13-29)	37.9	
CC[C@H](C)[C@@H]1NC(=O)[C@H](CCCNC(=N)N)NC(=O)[C@H](CC(=O)O)NC(=O)[C@H](CC(C)C)NC(=O)[C@@H]2CCCN2C(=O)[C@H](CC(C)C)NC(=O)CNC(=O)[C@H](Cc2ccccc2)NC(=O)[C@@H](NC(=O)CNC(=O)[C@H](CO)NC(=O)[C@H](CO)NC(=O)[C@H](CC(C)C)NC(=O)CNC(=O)[C@H](CCCCN)NC(=O)[C@H](CCCCN)NC(=O)[C@H](CCC(N)=O)NC(=O)[C@H](C)NC(=O)CNC(=O)[C@H](CCC(=O)O)NC(=O)[C@H](Cc2ccc(O)cc2)NC(=O)[C@H](CCCCN)NC(=O)[C@H](CCCNC(=N)N)NC(=O)[C@H](C)NC(=O)[C@H](CCC(N)=O)NC(=O)[C@@H]2CCCN2C(=O)[C@H](Cc2c[nH]cn2)NC(=O)[C@H](CCC(=O)O)NC(=O)[C@H](CCC(N)=O)NC(=O)CC[C@H](NC(=O)CC[C@H](NC(=O)CC[C@H](NC(=O)CC[C@H](NC(=O)CCCCCCCCCCCCCCCCC(=O)O)C(=O)O)C(=O)O)C(=O)O)C(=O)O)CSSC[C@@H](C(=O)O)NC(=O)CNC(=O)[C@H](CC(C)C)NC(=O)CNC(=O)[C@H](CO)NC(=O)[C@H](CC(C)C)NC(=O)[C@H](CO)NC(=O)CNC1=O [compound 1390] ({C18 diacid-γGlu-γGlu-γGlu-γGlu}-QEHPQARKYEGAQKKGLSSGCFGLPLDRIGSLSGLGC-OH; disulfide 21-37; C-terminus assumed)	84.6	
CC[C@H](C)[C@@H]1NC(=O)[C@H](CCCNC(=N)N)NC(=O)[C@H](CC(=O)O)NC(=O)[C@H](CC(C)C)NC(=O)[C@@H]2CCCN2C(=O)[C@H](CC(C)C)NC(=O)CNC(=O)[C@H](Cc2ccccc2)NC(=O)[C@@H](NC(=O)CNC(=O)[C@H](CO)NC(=O)[C@H](CO)NC(=O)[C@@H](NC(=O)CNC(=O)[C@@H](NC(=O)[C@H](CCCCN)NC(=O)[C@H](CCC(N)=O)NC(=O)[C@H](C)NC(=O)CNC(=O)[C@H](Cc2c[nH]cn2)NC(=O)[C@H](Cc2ccc(O)cc2)NC(=O)[C@H](CCCCN)NC(=O)[C@H](CCCNC(=N)N)NC(=O)[C@H](C)NC(=O)COCCOCCNC(=O)COCCOCCNC(=O)CC[C@H](NC(=O)CC[C@H](NC(=O)CC[C@H](NC(=O)CCCCCCCCCCCCCCCCC(=O)O)C(=O)O)C(=O)O)C(=O)O)[C@@H](C)O)C(C)C)CSSC[C@@H](C(=O)O)NC(=O)CNC(=O)[C@H](CC(C)C)NC(=O)CNC(=O)[C@H](CO)NC(=O)[C@H](CC(C)C)NC(=O)[C@H](CO)NC(=O)CNC1=O [compound 1450] ({C18 diacid-γGlu-γGlu-γGlu-AEEA-AEEA}-ARKYHGAQKTGVSSGCFGLPLDRIGSLSGLGC-OH; disulfide 16-32)	84.2	
CC[C@H](C)[C@@H]1NC(=O)[C@H](CCCNC(=N)N)NC(=O)[C@H](CC(=O)O)NC(=O)[C@H](CC(C)C)NC(=O)[C@H](CCCCN)NC(=O)[C@H](CC(C)C)NC(=O)CNC(=O)[C@H](Cc2ccccc2)NC(=O)[C@@H](NC(=O)CNC(=O)[C@H](CCCCN)NC(=O)[C@H](CO)NC(=O)[C@H](CC(C)C)NC(=O)CNC(=O)[C@H](CCCCN)NC(=O)[C@H](CCCCN)NC(=O)[C@H](CCC(N)=O)NC(=O)[C@H](C)NC(=O)CNC(=O)[C@H](CCCCN)NC(=O)[C@H](Cc2ccc(O)cc2)NC(=O)[C@H](CCCCN)NC(=O)[C@H](CCCNC(=N)N)NC(=O)[C@H](C)NC(=O)[C@H](CCC(N)=O)NC(=O)[C@@H]2CCCN2C(=O)[C@H](Cc2c[nH]cn2)NC(=O)[C@H](CCC(=O)O)NC(=O)[C@H](CCC(N)=O)NC(=O)COCCOCCNC(=O)COCCOCCNC(=O)CC[C@H](NC(=O)CC[C@H](NC(=O)CC[C@H](NC(=O)CC[C@H](NC(=O)CC[C@H](NC(=O)CC[C@H](NC(=O)CC[C@H](NC(=O)CC[C@H](NC(=O)CCCCCCCCCCCCCCCCC(=O)O)C(=O)O)C(=O)O)C(=O)O)C(=O)O)C(=O)O)C(=O)O)C(=O)O)C(=O)O)CSSC[C@@H](C(=O)O)NC(=O)CNC(=O)[C@H](CC(C)C)NC(=O)CNC(=O)[C@H](CO)NC(=O)[C@H](CC(C)C)NC(=O)[C@H](CO)NC(=O)CNC1=O [compound 1401]	19.7	0.56
CC[C@H](C)[C@@H]1NC(=O)[C@H](CCCNC(=N)N)NC(=O)[C@H](CC(=O)O)NC(=O)[C@H](CC(C)C)NC(=O)[C@@H]2CCCN2C(=O)[C@H](CC(C)C)NC(=O)CNC(=O)[C@H](Cc2ccccc2)NC(=O)[C@@H](NC(=O)CNC(=O)[C@H](CCCCN)NC(=O)[C@H](CO)NC(=O)[C@H](CC(C)C)NC(=O)CNC(=O)[C@H](CCCCN)NC(=O)[C@H](CCCCN)NC(=O)[C@H](CCC(N)=O)NC(=O)[C@H](C)NC(=O)CNC(=O)[C@H](CCCCN)NC(=O)[C@H](Cc2ccc(O)cc2)NC(=O)[C@H](CCCCN)NC(=O)[C@H](CCCNC(=N)N)NC(=O)[C@H](C)NC(=O)COCCOCCNC(=O)COCCOCCNC(=O)CC[C@H](NC(=O)CC[C@H](NC(=O)CC[C@H](NC(=O)CC[C@H](NC(=O)CC[C@H](NC(=O)CC[C@H](NC(=O)CCCCCCCCCCCCCCCCC(=O)O)C(=O)O)C(=O)O)C(=O)O)C(=O)O)C(=O)O)C(=O)O)CSSC[C@@H](C(=O)O)NC(=O)CNC(=O)[C@H](CC(C)C)NC(=O)CNC(=O)[C@H](CO)NC(=O)[C@H](CC(C)C)NC(=O)[C@H](CO)NC(=O)CNC1=O [compound 1460] ({C18 diacid-γGlu-γGlu-γGlu-γGlu-γGlu-γGlu-AEEA-AEEA}-ARKYKGAQKKGLSKGCFGLPLDRIGSLSGLGC-OH; disulfide 16-32)	32.4	
